Reference: PubChem BioAssay (NCI)
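The compound was tested at five concentrations on cells cultured in 96-well plates, with a 48-hour exposure period. TGI denotes the concentration required for complete inhibition of growth.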

Legend:
Assay in all cases: DTP human tumour cell line panel, 48 h
RPMI-8226 leukemia = system: RPMI-8226 leukemia
SK-MEL-5 melanoma = system: SK-MEL-5 melanoma
U251 CNS = system: U251 CNS
LOX IMVI melanoma = system: LOX IMVI melanoma
HT29 colon = system: HT29 colon
UACC-62 melanoma = system: UACC-62 melanoma
IGROV1 ovarian = system: IGROV1 ovarian
OVCAR-8 ovarian = system: OVCAR-8 ovarian
PC-3 prostate = system: PC-3 prostate
K-562 leukemia = system: K-562 leukemia
EKVX NSCLC = system: EKVX NSCLC
SNB-75 CNS = system: SNB-75 CNS
RXF 393 renal = system: RXF 393 renal
UACC-257 melanoma = system: UACC-257 melanoma
OVCAR-3 ovarian = system: OVCAR-3 ovarian
ACHN renal = system: ACHN renal
M14 melanoma = system: M14 melanoma
NCI-H23 lung = system: NCI-H23 lung
HCC-2998 colon = system: HCC-2998 colon
MDA-MB-435 = system: MDA-MB-435

| SMILES | TGI (RPMI-8226 leukemia) [µM] | TGI (SK-MEL-5 melanoma) [µM] | TGI (U251 CNS) [µM] | TGI (LOX IMVI melanoma) [µM] | TGI (HT29 colon) [µM] | TGI (UACC-62 melanoma) [µM] | TGI (IGROV1 ovarian) [µM] | TGI (OVCAR-8 ovarian) [µM] | TGI (PC-3 prostate) [µM] | TGI (K-562 leukemia) [µM] | TGI (EKVX NSCLC) [µM] | TGI (SNB-75 CNS) [µM] | TGI (RXF 393 renal) [µM] | TGI (UACC-257 melanoma) [µM] | TGI (OVCAR-3 ovarian) [µM] | TGI (ACHN renal) [µM] | TGI (M14 melanoma) [µM] | TGI (NCI-H23 lung) [µM] | TGI (HCC-2998 colon) [µM] | TGI (MDA-MB-435) [µM] |
| --- | --- | --- | --- | --- | --- | --- | --- | --- | --- | --- | --- | --- | --- | --- | --- | --- | --- | --- | --- | --- |
| CCCCOc1ccc(S(=O)(=O)/N=C(\NN)Nc2ccc(Cl)cc2)cc1 | > 100 | > 100 | 30.2 | 35.6 | 48.9 | > 100 | 60.2 | 36.2 | 33.1 | > 100 | > 100 | 27 | 36.2 | 68.7 | 46.8 | > 100 | 56.9 | > 100 | – | – |
| CCCOCN1COCN=C1NC#N | > 100 | > 100 | 43.8 | 47.5 | > 100 | > 100 | > 100 | > 100 | – | > 100 | > 100 | > 100 | 29.8 | > 100 | > 100 | > 100 | > 100 | > 100 | > 100 | – |
| COc1ccc(Nc2nc3ccccc3nc2C(=O)O)cc1 | – | > 100 | > 100 | > 100 | > 100 | > 100 | > 100 | > 100 | > 100 | > 100 | > 100 | > 100 | > 100 | > 100 | > 100 | > 100 | > 100 | > 100 | 23.1 | > 100 |
| CC1(C)O[C@@H](CP(c2ccccc2)c2ccccc2)[C@H](CP(c2ccccc2)c2ccccc2)O1 | 59.1 | 19.4 | 20.2 | 17.4 | 47.7 | – | 16.5 | 20.5 | – | – | 29.4 | 27.9 | 26.9 | 30.7 | 33.6 | > 100 | 22.7 | 14.6 | – | 52.4 |
| CNC(=O)OCCN1c2ccccc2Sc2ccccc21 | – | > 100 | > 100 | > 100 | > 100 | > 100 | > 100 | > 100 | > 100 | > 100 | > 100 | – | 99.2 | > 100 | > 100 | > 100 | > 100 | > 100 | > 100 | > 100 |
| CCOC(=O)CCC(NC(=O)c1ccc(Oc2nc3ccccc3nc2C(=O)OCC)cc1)C(=O)OCC (stereo not given) | > 100 | > 100 | > 100 | > 100 | > 100 | > 100 | > 100 | > 100 | > 100 | – | > 100 | 98.1 | – | > 100 | > 100 | > 100 | > 100 | > 100 | > 100 | > 100 |
| O=C1C2Nc3ccccc3SC2C(=O)N1c1cccc([N+](=O)[O-])c1 (stereo not given) | > 100 | > 100 | > 100 | > 100 | > 100 | > 100 | > 100 | > 100 | – | > 100 | > 100 | > 100 | > 100 | > 100 | > 100 | > 100 | > 100 | > 100 | > 100 | – |
| O=C(N/C(=C/c1ccc(Cl)cc1)c1nc2ccccc2c(=O)n1Nc1ccc([N+](=O)[O-])cc1[N+](=O)[O-])c1ccccc1 | – | > 100 | > 100 | > 100 | > 100 | > 100 | > 100 | > 100 | > 100 | > 100 | – | > 100 | – | > 100 | > 100 | – | > 100 | > 100 | > 100 | > 100 |
| O=C(NC/C(Cl)=C/Cl)Nc1cccc2c1CCCC2 | > 100 | > 100 | > 100 | > 100 | > 100 | > 100 | > 100 | > 100 | > 100 | – | > 100 | > 100 | > 100 | > 100 | > 100 | > 100 | > 100 | > 100 | > 100 | > 100 |
| COc1cc(C2C(Cl)C(=O)N2NC(=O)Cc2ccccc2)ccc1O (stereo not given) | > 100 | > 100 | > 100 | > 100 | > 100 | > 100 | > 100 | > 100 | – | > 100 | > 100 | > 100 | > 100 | > 100 | > 100 | > 100 | > 100 | > 100 | > 100 | – |
| COc1ccc2c(c1)CC[C@@H]1[C@@H]2CC[C@]2(C)[C@@H](O)/C(=C/c3ccncc3)C[C@@H]12 | 25.1 | 21.4 | 25.1 | – | 15 | 29.6 | 30 | 28.2 | 25.5 | – | 70.6 | 39.8 | 17.9 | 35.6 | 39.3 | 67.2 | 30.4 | 31.7 | 23.6 | 27.3 |
| COc1ccccc1OC(=O)/C=C/c1ccccc1 | > 100 | > 100 | > 100 | > 100 | > 100 | > 100 | > 100 | > 100 | > 100 | – | > 100 | > 100 | > 100 | > 100 | > 100 | > 100 | > 100 | > 100 | > 100 | > 100 |
| CCOC(=O)CCc1c(C)[nH]c2c(C)c3c([nH]c4ccc(Cl)cc43)c(C)c2c1=O | – | > 100 | 43.4 | 23.3 | 18.6 | – | 26.2 | 83.8 | > 100 | – | 37.6 | 30.9 | 6.76 | 30.5 | – | 28.9 | 18.5 | 61.7 | 30.5 | > 100 |
| CC1(C)S[C@@H]2[C@H](NC(=O)/C=C/c3ccccc3)C(=O)N2[C@H]1C(=O)O | > 100 | > 100 | > 100 | > 100 | > 100 | > 100 | > 100 | > 100 | > 100 | – | – | > 100 | – | > 100 | > 100 | > 100 | > 100 | > 100 | > 100 | > 100 |
| COP(=O)(C(/C=C/c1ccccc1)OC(C)=O)[C@@H]1CCCC[C@H]1N(CC(C)(C)C)C(C)=O (stereo not given in full) | – | 27.3 | 31.7 | 30.3 | 28 | 28 | 24.1 | 35.6 | 37.4 | 53 | 57.8 | 22.7 | 22.1 | 31 | 31.9 | 30.7 | 28.8 | 42.5 | 28.2 | 36.2 |
| COC(=O)c1cc(C)n(NC(=O)OC(C)(C)C)c1C | > 100 | > 100 | > 100 | > 100 | > 100 | > 100 | > 100 | > 100 | – | > 100 | > 100 | > 100 | > 100 | > 100 | > 100 | > 100 | > 100 | > 100 | > 100 | – |
| COC(=O)/C(=N\O)C(C(=O)C=C(C)C)C(=O)C(=O)Nc1ccccc1C (stereo not given) | > 100 | > 100 | > 100 | > 100 | > 100 | > 100 | > 100 | > 100 | – | > 100 | > 100 | > 100 | > 100 | > 100 | > 100 | > 100 | > 100 | > 100 | > 100 | – |
| c1ccc2c3nnc(c2c1)SCCSCCCSCCS3 | – | > 100 | > 100 | > 100 | > 100 | > 100 | > 100 | > 100 | > 100 | > 100 | > 100 | 18.5 | 95.7 | > 100 | > 100 | > 100 | > 100 | > 100 | > 100 | > 100 |
| Cn1c2c(cc(-c3ccccc3)c1=O)COc1ccccc1-2 | 42.1 | 39.9 | > 100 | 31.3 | 47.1 | 28.9 | > 100 | > 100 | – | 53.2 | > 100 | > 100 | > 100 | > 100 | > 100 | 91.9 | 94.4 | > 100 | > 100 | – |
| Cc1cc(C)c(NS(=O)c2cccc([N+](=O)[O-])c2)c(C)c1 (stereo not given) | > 100 | – | > 100 | – | > 100 | – | – | > 100 | > 100 | > 100 | – | – | > 100 | > 100 | > 100 | > 100 | > 100 | > 100 | – | > 100 |
| NC(=O)C(=CN1CC(=O)NC1=S)C(N)=O | – | > 100 | > 100 | > 100 | > 100 | > 100 | > 100 | > 100 | – | – | > 100 | > 100 | > 100 | > 100 | > 100 | > 100 | > 100 | > 100 | > 100 | > 100 |
